# Assay results as given in the supplement of paper PMC12406974.
# Tests used:
# Experiment in all cases: maximum observed lethal fraction; higher = more cell death
# U2OS BAX/BAK1 DKO = test system: U2OS BAX/BAK1 DKO
# U2OS BCL2L12-KO = test system: U2OS BCL2L12-KO
# U2OS PTBP1-KO = test system: U2OS PTBP1-KO
# U2OS = test system: U2OS
# 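Also: FLICK assay: SYTOX Green fluorescence of dead cells tracked over time after drugging in 96-well plates, with total cell counts taken from Triton X-100 lysed wells.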
Structure (SMILES),maximum observed lethal fraction (U2OS BAX/BAK1 DKO; 0.0316 µM),maximum observed lethal fraction (U2OS BAX/BAK1 DKO; 0.1 µM),maximum observed lethal fraction (U2OS BAX/BAK1 DKO; 0.316 µM),maximum observed lethal fraction (U2OS BAX/BAK1 DKO; 1 µM),maximum observed lethal fraction (U2OS BAX/BAK1 DKO; 3.16 µM),maximum observed lethal fraction (U2OS BAX/BAK1 DKO; 10 µM),maximum observed lethal fraction (U2OS BAX/BAK1 DKO; 31.6 µM),maximum observed lethal fraction (U2OS BCL2L12-KO; 0.0316 µM),maximum observed lethal fraction (U2OS BCL2L12-KO; 0.1 µM),maximum observed lethal fraction (U2OS BCL2L12-KO; 0.316 µM),maximum observed lethal fraction (U2OS BCL2L12-KO; 1 µM),maximum observed lethal fraction (U2OS BCL2L12-KO; 3.16 µM),maximum observed lethal fraction (U2OS BCL2L12-KO; 10 µM),maximum observed lethal fraction (U2OS BCL2L12-KO; 31.6 µM),maximum observed lethal fraction (U2OS PTBP1-KO; 0.0316 µM),maximum observed lethal fraction (U2OS PTBP1-KO; 0.1 µM),maximum observed lethal fraction (U2OS PTBP1-KO; 0.316 µM),maximum observed lethal fraction (U2OS PTBP1-KO; 1 µM),maximum observed lethal fraction (U2OS PTBP1-KO; 3.16 µM),maximum observed lethal fraction (U2OS PTBP1-KO; 10 µM),maximum observed lethal fraction (U2OS PTBP1-KO; 31.6 µM),maximum observed lethal fraction (U2OS; 0.0316 µM),maximum observed lethal fraction (U2OS; 0.1 µM),maximum observed lethal fraction (U2OS; 0.316 µM),maximum observed lethal fraction (U2OS; 1 µM),maximum observed lethal fraction (U2OS; 3.16 µM),maximum observed lethal fraction (U2OS; 10 µM),maximum observed lethal fraction (U2OS; 31.6 µM),maximum observed lethal fraction (U2OS BAX/BAK1 DKO; 0.01 µM),maximum observed lethal fraction (U2OS BCL2L12-KO; 0.01 µM),maximum observed lethal fraction (U2OS PTBP1-KO; 0.01 µM),maximum observed lethal fraction (U2OS; 0.01 µM),maximum observed lethal fraction (U2OS BAX/BAK1 DKO; 100 µM),maximum observed lethal fraction (U2OS BCL2L12-KO; 100 µM),maximum observed lethal fraction (U2OS PTBP1-KO; 100 µM),maximum observed lethal fraction (U2OS; 100 µM)
Nc1ccc(-c2ccc3ncc4ccc(=O)n(-c5cccc(C(F)(F)F)c5)c4c3c2)cn1 [Torin2],0.0705,0.0756,0.0765,0.0833,0.0776,0.0881,0.272,0.104,0.181,0.249,0.362,0.467,0.629,0.443,0.0906,0.107,0.196,0.276,0.363,0.436,0.421,0.0812,0.0904,0.197,0.299,0.435,0.589,0.396,–,–,–,–,–,–,–,–
CO[C@H]1C[C@@H]2CC[C@@H](C)[C@@](O)(O2)C(=O)C(=O)N2CCCC[C@H]2C(=O)O[C@H]([C@H](C)C[C@@H]2CC[C@@H](O)[C@H](OC)C2)CC(=O)[C@H](C)/C=C(\C)[C@@H](O)[C@@H](OC)C(=O)[C@H](C)C[C@H](C)/C=C/C=C/C=C/1C [Rapamycin],0.0616,0.0646,0.0631,0.0613,0.0695,0.0695,–,0.0732,0.0721,0.0738,0.0786,0.084,0.0965,–,0.0686,0.0757,0.0711,0.0784,0.0724,0.0767,–,0.0603,0.0606,0.0645,0.061,0.0607,0.0674,–,0.0624,0.0761,0.0742,0.062,–,–,–,–
Nc1cc(C(F)(F)F)c(-c2cc(N3CCOCC3)nc(N3CCOCC3)n2)cn1 [Buparlisib],0.0655,0.0661,0.0716,0.091,0.0979,0.11,0.116,0.0818,0.0866,0.0955,0.176,0.287,0.349,0.374,0.0937,0.0916,0.0993,0.125,0.231,0.304,0.326,0.0663,0.0713,0.0748,0.109,0.275,0.463,0.513,–,–,–,–,–,–,–,–
C#C[C@@]1(O)[C@@H](CO)O[C@@H](n2ccc(N)nc2=O)[C@@H]1O [Ethynylcytidine],0.059,0.0745,0.0801,0.0819,0.0878,0.0906,–,0.0771,0.0843,0.0999,0.323,0.706,0.715,–,0.0709,0.0864,0.0904,0.101,0.329,0.244,–,0.0612,0.071,0.0947,0.523,0.868,0.787,–,0.0536,0.068,0.0691,0.0536,–,–,–,–
C[C@H]1CCC/C=C/[C@@H]2C[C@H](O)C[C@H]2[C@H](O)/C=C/C(=O)O1 [Brefeldin A],0.0711,0.075,0.0688,0.0708,0.0703,0.0786,0.0716,0.218,0.387,0.628,0.709,0.77,0.793,0.86,0.168,0.257,0.333,0.321,0.29,0.411,0.389,0.0868,0.38,0.634,0.701,0.762,0.775,0.818,–,–,–,–,–,–,–,–
NC(=O)c1cccc2cn(-c3ccc([C@@H]4CCCNC4)cc3)nc12 [Niraparib],–,0.0556,0.0569,0.065,0.0723,0.0787,0.342,–,0.0692,0.0678,0.0775,0.0795,0.0934,0.86,–,0.0698,0.0678,0.0749,0.0795,0.0839,0.396,–,0.0543,0.0611,0.0677,0.067,0.0744,0.716,–,–,–,–,0.936,0.928,0.964,0.968
CC[C@@]1(O)C(=O)OCc2c1cc1n(c2=O)Cc2cc3c(CN(C)C)c(O)ccc3nc2-1 [Topotecan],0.0741,0.0822,0.0765,0.0845,0.0931,0.0974,0.177,0.0781,0.0819,0.0871,0.0968,0.208,0.495,0.798,0.0741,0.0838,0.0808,0.0858,0.106,0.197,0.329,0.0699,0.0706,0.0756,0.0868,0.233,0.5,0.683,–,–,–,–,–,–,–,–
